Active and inactive are the calls of the source.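 The calls were made as follows: active = compounds giving half or more protection of infected cells from virus-caused growth loss, again on retest; inactive = the rest.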 Where a SMILES comes first, the peptide text is derived from it. [ ]: non-standard residue; d: D form. Ac5c = NC1(C(=O)O)CCCC1
System: CEM cells HIV-1 protection, formazan growth assay
Assay: NCI AIDS Antiviral Assay
Details: for IC50: measured here: growth of uninfected CEM cells
Method in brief: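 Steps: treat uninfected and HIV-1-infected human CEM cells at five drug levels; quantify growth by soluble formazan; retest any compound reaching 50% protection; classify actives from the retest.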

SMILES	outcome	EC50	IC50
CC1OC(=O)C2CC3CCCCC3C(/C=C/C3CCCC(C)N3C)C12 (stereo not drawn)	inactive		
C[N+](C)(C)CC1C2C=CC(C2)C1CO (stereo not drawn)		> 275 µM	> 275 µM
N#CC(C(=O)CCC(=O)Nc1ccc(Cl)cc1)c1ccccc1Cl (stereo not drawn)		> 186 µM	> 186 µM
c1ccc(-c2ccnc3c2ccc2c(-c4ccccc4)ccnc23)cc1		> 21.9 µM	11.5 µM
Cc1cc(S(=O)(=O)Nc2nc3cc(-c4ccc(Cl)cc4)sc3c(=O)n2N)c(S)cc1Cl		> 200 µM	110 µM
CNC(=O)CNC(=O)N(C[C@@H]1CCCN1C(=O)[C@H](CC(C)C)NC(=O)OC(C)(C)C)C(C)C		> 200 µM	> 200 µM
COC(=O)C1(NC(=O)C(C)NC(=O)C(CCCCN)NC(=O)C(CC(C)C)NC(C)=O)CCCC1 (stereo not drawn) (Ac-LKA[Ac5c]-OMe; configuration not given here)		> 200 µM	> 200 µM
c1ccc(SC(Sc2ccccc2)=C2CCC2)cc1	inactive		
O=Cc1ccc2c(c1I)OCO2		> 67.6 µM	38.9 µM
CCc1cccc(C(C)(C)C)c1NC(=S)/N=C/C(C(=O)c1ccccc1)=C(\O)c1ccccc1		> 200 µM	51.3 µM
O=[N+]([O-])c1ccc(C2=Nc3ccccc3N=C(c3ccccc3O)C2)cc1		> 200 µM	> 200 µM
Cc1c2oc(=O)c(C#N)cc2c2ccccn12		> 200 µM	> 200 µM
CC1(C)O[C@@H](CCl)C[C@@H](C#N)O1	inactive		
CCCCCCCCCCCCCCCCc1c(C(=O)OC)nc(NN)[nH]c1=O		> 9.33 µM	> 9.33 µM
Cc1ccc(NC(=O)/C(Cc2cc(=O)oc3cc(O)ccc23)=N\NC(=O)C[N+](C)(C)C)cc1C		> 186 µM	> 186 µM
COC(=O)C1=C2Nc3ccccc3[C@@]23CCN(Cc2ccccc2)C3C[C@H]1C1=CC(OC)OC1OC (stereo partly drawn)		> 25.7 µM	15.1 µM
O=C(O)CC12C3C4C5C3C1C5C42 (stereo not drawn)		> 575 µM	> 575 µM

SMILES	outcome	EC50	IC50
CC(C)CCS(=O)(=O)O		> 200 µM	> 200 µM
CC(C)=NNC1=NC(C)(C)P(=O)(N2CCCC2C(=O)O)S1 (stereo not drawn)		> 135 µM	132 µM
N#C/C(=C\c1cccc([N+](=O)[O-])c1)C(=O)c1ccccc1		> 79.4 µM	40.7 µM
N#Cc1ccc(-n2cccc2)cc1		> 200 µM	> 200 µM
CC1SC(N)=NN=C1c1c(O)c2ccccc2oc1=O (stereo not drawn)		> 200 µM	148 µM
CC1CCCCN1CC(=O)c1ccc2c(c1)Sc1ccccc1O2 (stereo not drawn)		> 200 µM	8.13 µM
CN1C(=O)[C@@H]2N(N(C)C1=O)[C@@]1(Br)C(=O)NC(=O)[C@@]21Br		102 µM	148 µM
CCSC(CC(O)C(O)C(O)CO)SCC (stereo not drawn)		> 200 µM	> 200 µM
O=C(Cn1c(=O)oc2ccc(C(=O)c3ccc(F)cc3)cc21)c1ccccc1		> 200 µM	123 µM
COC(=O)C1=C(C(=O)OC)C2(C(=O)OC)OC1(OC)C(C1(C(=O)OC)C(C(=O)OC)=C1C(=O)OC)=C2C(=O)OC (stereo not drawn)	inactive		
CCCCc1c(N(C)C)c(OC(C)=O)c(-c2cn(C)c3ccccc23)oc1=O		> 200 µM	31.6 µM
c1cn(C23C4C5C6C4C2C6C53)cn1 (stereo not drawn)		> 200 µM	> 200 µM
CCOC(OCC)C(CC)[Se]c1ccccc1[N+](=O)[O-] (stereo not drawn)		> 28.8 µM	1.7 µM
C[CH2][Sn]([CH2]C)([O]C(=O)c1cc(OC)c(OC)c(OC)c1)[O][Sn]([CH2]C)([CH2]C)[O]C(=O)c1cc(OC)c(OC)c(OC)c1		> 6.61 µM	> 6.61 µM
[NH-]/N=C(\[O-])c1ccncc1.[NH-]/N=C(\[O-])c1ccncc1.[Ni+2]		> 100 µM	> 100 µM
O=C(Nc1ccc(Sc2ccc(N=Nc3c(O)c(S(=O)(=O)O)cc4cc(S(=O)(=O)O)ccc34)cc2)cc1)c1ccc(N=Nc2ccc3c(S(=O)(=O)O)cccc3c2O)cc1	inactive		
COC(=O)c1c2c(cc3c1CC1(Cc4cc5c(c(C(C)=O)c4C1)CCCC5)C3)CCCC2 (stereo not drawn)		> 200 µM	> 200 µM
